Converted amounts (≈) assume the structure as drawn. Where a name gives a salt, the structure may show the parent alone. Bounds are passed on as bounds.

The test system of test [1] is Burkholderia cepacia ATCC 25416. Put plainly: MIC determination by microbroth dilution. The format is cell-based. As to conditions: ATCC25416, read-out: MIC B. cepcia.
Test [2] concerns Strep. pneumoniae DAW27 or strain R6. Nature of the test: MIC determination by microbroth dilution. The format is cell-based, Streptococcus pneumoniae. As to conditions: Streptococcus pneumoniae; Strep. pneumoniae DAW27 or strain R6 (for 1443-1544); read-out: MIC S. pneumoniae. A general note: Dilution methods test growth across graded concentrations, often in twofold steps.
The subject of the next test is M. tuberculosis H37Rv. Put plainly: MIC determination by microbroth dilution, anti-tuberculosis activity. The format is cell-based, Mycobacterium tuberculosis. As to conditions: Mycobacterium tuberculosis, H37RV, 168 h; read-out: MIC.
For test [3], the system named is Strenotrophomonas maltophilia ATCC 13637. Nature of the test: MIC determination by microbroth dilution. The format is cell-based.
Another test has as its system B. anthracis Sterne 34F2. Put plainly: microbe, parasite or virus in culture. The format is cell-based, Bacillus anthracis. As to conditions: Bacillus anthracis, STERNE34F2, read-out: MIC B. anthracis 34F2.
Test [4] concerns Proteus mirabilis ATCC 25933. Put plainly: MIC determination by microbroth dilution. The format is cell-based. As to conditions: ATCC25933.
Another test concerns P. aeruginosa PAO1. Put plainly: MIC determination by microbroth dilution. The format is cell-based, Pseudomonas aeruginosa. As to conditions: Pseudomonas aeruginosa.
Test [5] has as its system Proteus vulgaris ATCC 33420. Put plainly: MIC determination by microbroth dilution. As to conditions: ATCC33420. The format is cell-based.
Test [6] deals with S. aureus 8325 or strain ATCC 29213. Nature of the test: MIC determination by microbroth dilution. The format is cell-based, Staphylococcus aureus. As to conditions: Staphylococcus aureus, ATCC29213; S. aureus 8325 or strain ATCC 29213 (for 1471-1544).
For test [7], the system named is Klebsiella pneumoniae ATCC 33495. Put plainly: MIC determination by microbroth dilution. The format is cell-based. As to conditions: ATCC33495.
A further test deals with E. faecalis ATCC 33186. Put plainly: MIC determination by microbroth dilution. As to conditions: Enterococcus faecalis, ATCC33186. The format is cell-based, Enterococcus faecalis.
The subject of another test is E. coli K12 ΔtolC. Put plainly: microbe, parasite or virus in culture. The format is cell-based. As to conditions: Escherichia coli, read-out: MIC E. coli K12 ΔtolC.
Another test has as its system E. coli K12. Put plainly: MIC determination by microbroth dilution. The format is cell-based, Escherichia coli. As to conditions: Escherichia coli, K12.
Test [8] deals with Strep. pyogenes ATCC 700294. Put plainly: MIC determination by microbroth dilution. The format is cell-based, Streptococcus pyogenes. As to conditions: Streptococcus pyogenes, ATCC700294, read-out: MIC S. pyogenes.
The test system of test [9] is Acinetobacter baumannii ATCC 19606. Put plainly: MIC determination by microbroth dilution. The format is cell-based. As to conditions: ATCC19606.

For `CN[C@@H]1[C@H](O)[C@H](NC)C2O[C@]3(O)C(OC2[C@H]1O)O[C@H](C)C[C@H]3NC(=O)Cc1csc(-c2ccccc2)n1` (stereo partly drawn) [Compound 1517, 3′-Dihydro-3′-deoxy-4(R)-(2-phenylthiazol-4-yl)acetylamino spectinomycin trihydrobromide], the MIC in test [1] was > 200 µg/mL; in test [2] it was 6.25 µg/mL; with M. tuberculosis H37Rv, 50 µg/mL; in test [3] it was > 200 µg/mL; with B. anthracis Sterne 34F2, > 200 µg/mL; in [4], > 200 µg/mL. Further, the MIC against P. aeruginosa PAO1 was > 200 µg/mL; in [5], > 200 µg/mL; in test [6] it was 200 µg/mL; in test [7], > 200 µg/mL; with E. faecalis ATCC 33186 it was 100 µg/mL; in the test with E. coli K12 ΔtolC, 200 µg/mL. Also, the MIC in the test with E. coli K12 was > 200 µg/mL; in test [8] it was 6.25 µg/mL; in [9] it was > 200 µg/mL.
For the compound `CN[C@@H]1[C@H](O)[C@H](NC)C2O[C@]3(O)C(OC2[C@H]1O)O[C@H](C)C[C@H]3NC(=O)CCc1ccccn1` (stereo partly drawn) [Compound 1518, 3′-Dihydro-3′-deoxy-4(R)-(pyridin-2-yl)propanoylamino spectinomycin trihydrobromide], the MIC in test [1] is > 200 µg/mL; in test [2], 12.5 µg/mL; with M. tuberculosis H37Rv, 50 µg/mL; in test [3], > 200 µg/mL; with B. anthracis Sterne 34F2 it was > 200 µg/mL; in [4], > 200 µg/mL. Further, the MIC in the test with P. aeruginosa PAO1 was > 200 µg/mL; in test [5], > 200 µg/mL; in [6] it was 200 µg/mL; in test [7], > 200 µg/mL; in the test on E. faecalis ATCC 33186 it was > 200 µg/mL; in the test with E. coli K12 ΔtolC, 50 µg/mL. For the same compound, the values for the MIC (against E. coli K12; in [8]; in [9]) were > 200 µg/mL, 6.25 µg/mL and > 200 µg/mL, respectively.
Take `CN[C@@H]1[C@H](O)[C@H](NC)C2O[C@]3(O)C(OC2[C@H]1O)O[C@H](C)C[C@H]3NC(=O)Cc1ccc(-c2ccccc2)cn1` (stereo partly drawn) [Compound 1519, 3′-Dihydro-3′-deoxy-4(R)-(5-phenylpyridin-2-yl)acetylamino spectinomycin trihydrobromide]: the MIC in test [1] was > 200 µg/mL; in [2] it was 3.1 µg/mL; in the test on M. tuberculosis H37Rv, 3.12 µg/mL; in test [3], > 200 µg/mL; in the test with B. anthracis Sterne 34F2, > 200 µg/mL; in test [4], > 200 µg/mL. Moreover, the MIC against P. aeruginosa PAO1 was > 200 µg/mL; in test [5] it was > 200 µg/mL; in test [6] it was 100 µg/mL; in [7], > 200 µg/mL; with E. faecalis ATCC 33186 it was 25 µg/mL; in the test on E. coli K12 ΔtolC, 12.5 µg/mL. For the same compound, the MIC in the test with E. coli K12 was > 200 µg/mL; in [8], 12.5 µg/mL; in test [9], > 200 µg/mL.
Regarding `CN[C@@H]1[C@H](O)[C@H](NC)C2O[C@]3(O)C(OC2[C@H]1O)O[C@H](C)C[C@H]3NC(=O)Cc1csc(Nc2ccccc2)n1` (stereo partly drawn) [Compound 1520, 3′-Dihydro-3′-deoxy-4(R)-(2-(phenylamino)thiazol-4-yl)acetylamino spectinomycin trihydrobromide], the MIC was > 200 µg/mL in test [1]; 3.1 µg/mL in test [2]; 6.25 µg/mL in the test with M. tuberculosis H37Rv; > 200 µg/mL in [3]; > 200 µg/mL with B. anthracis Sterne 34F2; > 200 µg/mL in test [4]. The MIC with P. aeruginosa PAO1 is > 200 µg/mL; in test [5], > 200 µg/mL; in test [6] it was 100 µg/mL; in [7], > 200 µg/mL; in the test on E. faecalis ATCC 33186 it was 100 µg/mL; with E. coli K12 ΔtolC it was 25 µg/mL. Further, the MIC is > 200 µg/mL against E. coli K12, 3.1 µg/mL in [8] and > 200 µg/mL in test [9].
Regarding `CN[C@@H]1[C@H](O)[C@H](NC)C2O[C@]3(O)C(OC2[C@H]1O)O[C@H](C)C[C@H]3NC(=O)Cc1ccc(-c2ccc(Cl)cc2)cn1` (stereo partly drawn) [Compound 1535, 3′-Dihydro-3′-deoxy-4(R)-(5-(4-chlorophenyl)pyridin-2-yl)acetylamino spectinomycin trihydrobromide], the MIC was > 200 µg/mL in test [1]; 0.8 µg/mL in test [2]; 3.12 µg/mL in the test with M. tuberculosis H37Rv; > 200 µg/mL in test [3]; > 200 µg/mL in the test on B. anthracis Sterne 34F2; > 200 µg/mL in test [4]. The MIC with P. aeruginosa PAO1 was 100 µg/mL; in test [5], > 200 µg/mL; in [6], 50 µg/mL; in [7], > 200 µg/mL; with E. faecalis ATCC 33186, 3.1 µg/mL; in the test with E. coli K12 ΔtolC it was < 6.25 µg/mL. For the same compound, the MIC in the test with E. coli K12 is 200 µg/mL; in test [8] it was 1.6 µg/mL; in test [9] it was > 200 µg/mL.
Take `CN[C@@H]1[C@H](O)[C@H](NC)C2O[C@]3(O)C(OC2[C@H]1O)O[C@H](C)C[C@H]3NC(=O)c1cccc2cccnc12` (stereo partly drawn) [Compound 1536, 3′-Dihydro-3′-deoxy-4(R)-(quinoline-8-yl)carbonylamino spec-tinomycin trihydrobromide]: the MIC was > 200 µg/mL in [1]; 200 µg/mL in test [2]; > 200 µg/mL in the test on M. tuberculosis H37Rv; > 200 µg/mL in test [3]; > 200 µg/mL in the test with B. anthracis Sterne 34F2; > 200 µg/mL in [4]. For the same compound, the MIC (in the test on P. aeruginosa PAO1; in test [5]; in test [6]; in test [7]; with E. faecalis ATCC 33186; with E. coli K12 ΔtolC) was > 200 µg/mL in each case. Moreover, the MIC (against E. coli K12; in test [8]; in [9]) was > 200 µg/mL throughout.
In the case of `CN[C@@H]1[C@H](O)[C@H](NC)C2O[C@]3(O)C(OC2[C@H]1O)O[C@H](C)C[C@H]3NC(=O)Cc1cn(Cc2ccccc2)nn1` (stereo partly drawn) [Compound 1537, 3′-Dihydro-3′-deoxy-4(R)-2-(1-benzyl-1H-1,2,3-triazol-4-yl)acetyl-amino spectinomycin tetrabromide], the MIC in [1] is > 200 µg/mL; in test [2], 3.1 µg/mL (≈ 5.82 µM); in the test on M. tuberculosis H37Rv, 50 µg/mL (≈ 93.9 µM); in [3] it was > 200 µg/mL; with B. anthracis Sterne 34F2 it was > 200 µg/mL; in test [4], > 200 µg/mL. In addition, the MIC with P. aeruginosa PAO1 is > 200 µg/mL; in test [5], > 200 µg/mL; in [6], 100 µg/mL (≈ 188 µM); in [7], > 200 µg/mL; in the test on E. faecalis ATCC 33186, 25 µg/mL (≈ 46.9 µM); in the test with E. coli K12 ΔtolC, 12.5 µg/mL (≈ 23.5 µM). Further, the MIC was > 200 µg/mL against E. coli K12, 3.1 µg/mL (≈ 5.82 µM) in [8] and > 200 µg/mL in test [9].
As for `CN[C@@H]1[C@H](O)[C@H](NC)C2O[C@]3(O)C(OC2[C@H]1O)O[C@H](C)C[C@H]3NC(=O)Cc1csc(Nc2ccc(F)cc2)n1` (stereo partly drawn) [Compound 1538, 3′-Dihydro-3′-deoxy-4(R)-(2-((4-fluorophenyl)amino)thiazol-4-yl)acetylamino spectinomycin tribromide], the MIC in test [1] is > 200 µg/mL; in test [2], 3.1 µg/mL; in the test with M. tuberculosis H37Rv, 6.25 µg/mL; in [3] it was > 200 µg/mL; in the test with B. anthracis Sterne 34F2, > 200 µg/mL; in [4], > 200 µg/mL. In addition, the MIC in the test with P. aeruginosa PAO1 is 200 µg/mL; in [5], > 200 µg/mL; in test [6] it was 100 µg/mL; in [7], > 200 µg/mL; in the test with E. faecalis ATCC 33186, 25 µg/mL; with E. coli K12 ΔtolC, 25 µg/mL. Besides, the MIC against E. coli K12 is > 200 µg/mL; in test [8], 6.25 µg/mL; in [9], > 200 µg/mL.
`CN[C@@H]1[C@H](O)[C@H](NC)C2O[C@]3(O)C(OC2[C@H]1O)O[C@H](C)C[C@H]3NC(=O)Cc1csc(Nc2cccc(F)c2)n1` (stereo partly drawn) [Compound 1539, 3′-Dihydro-3′-deoxy-4(R)-(2-((3-fluorophenyl)amino)thiazol-4-yl)acetylamino spectinomycin tribromide]: the MIC in test [1] was > 200 µg/mL; in test [2], 3.1 µg/mL; in the test on M. tuberculosis H37Rv it was 6.25 µg/mL; in test [3], > 200 µg/mL; in the test with B. anthracis Sterne 34F2, > 200 µg/mL; in test [4], > 200 µg/mL. For the same compound, the MIC is > 200 µg/mL against P. aeruginosa PAO1; > 200 µg/mL in test [5]; 100 µg/mL in test [6]; > 200 µg/mL in test [7]; 25 µg/mL in the test on E. faecalis ATCC 33186; 12.5 µg/mL with E. coli K12 ΔtolC. The MIC is > 200 µg/mL with E. coli K12, 3.1 µg/mL in test [8] and > 200 µg/mL in test [9].

For the origin of these results see US9284325B2, “Spectinamides as anti-tuberculosis agents” (UNIVERSITY OF TENNESSEE RESEARCH FOUNDATION, priority 2009, dated 2016).
